Earlier results on 1 molecule are cited in patent US20130251696A1, “Antioxidant Composition for Reducing Oxidative Stress Ascribable to the Treatment with Hormonal Contraceptive Drugs” (COR.CON. INTERNATIONAL S.R.L., priority 2010, published 2013).

The conditions of this series: principal organs (heart, brain, liver, uterus etc.).

As to `O=C(O[C@@H]1Cc2c(O)cc(O)cc2O[C@@H]1c1cc(O)c(O)c(O)c1)c1cc(O)c(O)c(O)c1` [EGCG, epigallocatechin gallate], the “tissue levels as % of blood levels” value is 8-10%.
